Patent US9938273B2 (Plexxikon Inc., priority 2015, dated 2018)

Columns and labels:
[1] = biological target: T1, BA/F3-FLT3-ITD + D835Y cells (Homo sapiens, UniProt P36888, D835Y, cells depend on it, form not given); assay: Cell proliferation assay (CellTiter-Glo), engineered BA/F3 cells; assay type: cell-based, murine; conditions: BaF3 FLT3 ITD/D835Y cells, 3d-Growth; read-out: BaF3_FLT3 ITD/D835Y 3d-Growth: IC50
T1 sequence (P36888 1-993 D835Y): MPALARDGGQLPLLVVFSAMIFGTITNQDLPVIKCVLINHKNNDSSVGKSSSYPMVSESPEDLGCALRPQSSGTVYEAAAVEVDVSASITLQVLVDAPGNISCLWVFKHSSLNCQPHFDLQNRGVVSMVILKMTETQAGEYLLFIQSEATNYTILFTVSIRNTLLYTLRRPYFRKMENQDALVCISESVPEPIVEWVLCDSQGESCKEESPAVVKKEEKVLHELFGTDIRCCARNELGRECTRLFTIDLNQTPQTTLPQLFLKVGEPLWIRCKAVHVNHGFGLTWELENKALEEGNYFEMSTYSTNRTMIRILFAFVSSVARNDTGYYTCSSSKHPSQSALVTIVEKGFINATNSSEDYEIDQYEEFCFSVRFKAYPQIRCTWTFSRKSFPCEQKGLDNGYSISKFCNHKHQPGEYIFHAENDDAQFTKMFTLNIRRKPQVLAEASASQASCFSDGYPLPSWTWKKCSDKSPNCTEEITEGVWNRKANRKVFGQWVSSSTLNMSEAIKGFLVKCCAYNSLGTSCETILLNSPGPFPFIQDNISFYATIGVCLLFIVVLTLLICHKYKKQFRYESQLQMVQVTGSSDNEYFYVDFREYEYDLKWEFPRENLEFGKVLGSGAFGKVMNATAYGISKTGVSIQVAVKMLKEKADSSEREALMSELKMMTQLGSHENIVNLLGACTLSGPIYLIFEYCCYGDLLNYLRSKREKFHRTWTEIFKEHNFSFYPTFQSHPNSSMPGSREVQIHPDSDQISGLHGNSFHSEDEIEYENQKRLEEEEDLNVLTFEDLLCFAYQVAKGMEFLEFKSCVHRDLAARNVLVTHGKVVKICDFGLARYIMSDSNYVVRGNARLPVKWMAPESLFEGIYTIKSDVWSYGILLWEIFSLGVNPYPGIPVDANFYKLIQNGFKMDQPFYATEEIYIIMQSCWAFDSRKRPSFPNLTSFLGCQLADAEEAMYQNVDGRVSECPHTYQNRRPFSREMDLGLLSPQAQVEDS
Source text: The FLT3 inhibitors may be assessed using the MOLM-14, Acute Myeloid Leukemia cell line that endogenously expresses FLT3 ITD or derivatives of the human FLT3 AML cell line which acquired the D835Y (activation loop) of F691L (gatekeeper) mutation after selection in escalating doses of the FLT3 Inhibitor AC220. FLT3 inhibitors may also be assessed using cells that are engineered to express mutant FLT3. For engineered cells, murine Ba/F3 cells were transfected with full-length FLT3 ITD/D835Y mutations. The parental BA/F3 cells are dependent upon Interleukin-3 (IL-3) for survival, and introduction of the FLT3 constructs rendered these cells dependent upon FLT3 kinase activity when cultured in the absences of IL-3. Engineered BA/F3 cell growth assays can be performed in either the […] of IL-3, to assess the compound inhibition of FLT3 or to detect the presence of off-target activity, respectively. Inhibitors of FLT3 kinase activity reduce or eliminate the FLT3 oncogenic signaling, resulting in reduced cell proliferation. This inhibition is measured as a function of compound concentration to asses IC50 values.
Cell lines used in proliferation assays are as follows in Table 3:
Cells were seeded at 1×10^4 cells per well of a 96 well cell culture plate in 50 μl of cell culture medium. Compounds were dissolved in DMSO, typically at a concentration of 0.5 mM and were serially diluted 1:3 for a total of eight points and added to the cells to final concentrations of […], 0.0041, 0.0014 and 0.00046 μM in 100 μl cell culture medium (final concentration 0.2% DMSO). […] The cells were incubated at 37° C., 5% CO2 for three days. CellTiter-Glo Buffer (Promega Cell Viability Assay catalog #G7573) and substrate were equilibrated to room temperature, and enzyme/substrate Recombinant Firefly Luciferase/Beetle Luciferin was reconstituted. The cell plates were equilibrated to room temperature for 30 minutes, then lysed by addition of an equivalent volume of the Celltiter-Glo Reagent. The plate was mixed for 10 minutes on a plate shaker to lyse the cells. The plates were read on a Tecan M1000 using Luminescence protocol modified to read 0.1 s per well. The luminescence reading assesses the ATP content, which correlates directly with cell number such that the reading as a function of compound concentration was used to determine the IC50 value.

c-KIT = biological target: T2, c-KIT (Homo sapiens, UniProt P10721); assay: AlphaScreen kinase assay with recombinant enzyme, c-KIT; assay type: biochemical; conditions: 100ATP, 8pt, GMean
T2 construct: purchased Millipore 14-559K
Procedure, shortened: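 Recombinant kinase phosphorylates biotinylated poly(Glu4-Tyr) peptide (30 nM final); streptavidin donor and anti-phosphotyrosine PY20 acceptor beads (10 μg/mL final) give a 580 nm proximity signal on 680 nm excitation. IC50 determinations used a final concentration of 10 μM for FLT3-D835Y/FLT3-ITD and 100 μM for c-KIT.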

T2 sequence (P10721 26-976): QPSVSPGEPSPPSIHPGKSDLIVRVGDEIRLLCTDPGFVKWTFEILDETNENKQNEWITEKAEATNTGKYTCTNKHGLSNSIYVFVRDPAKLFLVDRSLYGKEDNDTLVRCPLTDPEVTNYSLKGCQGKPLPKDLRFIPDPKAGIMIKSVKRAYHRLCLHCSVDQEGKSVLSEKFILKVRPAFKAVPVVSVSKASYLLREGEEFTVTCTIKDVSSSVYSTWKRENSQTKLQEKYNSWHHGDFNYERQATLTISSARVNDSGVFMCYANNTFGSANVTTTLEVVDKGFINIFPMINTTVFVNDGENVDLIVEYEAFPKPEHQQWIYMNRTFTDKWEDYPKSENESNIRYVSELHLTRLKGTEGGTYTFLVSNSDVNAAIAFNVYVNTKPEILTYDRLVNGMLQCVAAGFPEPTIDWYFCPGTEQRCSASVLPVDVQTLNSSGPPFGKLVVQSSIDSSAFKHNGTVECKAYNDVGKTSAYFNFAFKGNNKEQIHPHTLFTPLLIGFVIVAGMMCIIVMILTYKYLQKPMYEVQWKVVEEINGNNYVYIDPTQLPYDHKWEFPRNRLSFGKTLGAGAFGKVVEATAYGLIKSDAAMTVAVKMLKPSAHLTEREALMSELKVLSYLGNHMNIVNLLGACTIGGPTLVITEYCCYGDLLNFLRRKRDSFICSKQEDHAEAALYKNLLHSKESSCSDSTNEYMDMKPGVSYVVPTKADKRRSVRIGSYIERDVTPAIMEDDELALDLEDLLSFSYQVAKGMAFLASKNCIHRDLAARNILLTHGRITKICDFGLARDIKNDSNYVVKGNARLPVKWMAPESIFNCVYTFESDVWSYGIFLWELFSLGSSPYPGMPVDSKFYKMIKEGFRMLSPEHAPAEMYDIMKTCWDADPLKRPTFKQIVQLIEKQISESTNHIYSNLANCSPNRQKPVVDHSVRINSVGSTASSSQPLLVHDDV

Structure (SMILES) | GI50 [1] | IC50 (c-KIT)
CN(CCC#N)C(=O)c1cccc(-c2cnc3[nH]c(-c4ccccc4)cc3c2)n1 [Compound P-0119, N-(2-cyanoethyl)-N-methyl-6-(2-phenyl-1H-pyrrolo[2,3-b]pyridin-5-yl)pyridine-2-carboxamide] | 0.0001 to 10 µM | 50 to 100 µM
O=C(c1cccc(-c2cnc3[nH]c(-c4cnn(CC(F)(F)F)c4)cc3c2)n1)N1CCC(F)(F)C1 [Compound P-0112, (3,3-difluoropyrrolidin-1-yl)-[6-[2-[1-(2,2,2-trifluoroethyl)pyrazol-4-yl]-1H-pyrrolo[2,3-b]pyridin-5-yl]-2-pyridyl]methanone] | 0.0001 to 10 µM | 10 to 50 µM
O=C(c1cccc(-c2cnc3[nH]c(-c4ccccc4)cc3c2)n1)N1CCC(n2ccnc2)C1 (stereo not shown) [Compound P-0097, (3-imidazol-1-ylpyrrolidin-1-yl)-[6-(2-phenyl-1H-pyrrolo[2,3-b]pyridin-5-yl)-2-pyridyl]methanone] | 0.0001 to 10 µM | 0.0001 to 10 µM
N#C[C@H]1CCN(C(=O)c2cccc(-c3cnc4[nH]c(-c5ccccc5)cc4c3)n2)C1 [Compound P-0117, (3S)-1-[6-(2-phenyl-1H-pyrrolo[2,3-b]pyridin-5-yl)pyridine-2-carbonyl]pyrrolidine-3-carbonitrile] | 0.0001 to 10 µM | 0.0001 to 10 µM
N#CC1CCN(C(=O)c2cccc(-c3cnc4[nH]c(C5=CCCCC5)cc4c3)n2)C1 (stereo not shown) [Compound P-0120, 1-[6-[2-(cyclohexen-1-yl)-1H-pyrrolo[2,3-b]pyridin-5-yl]pyridine-2-carbonyl]pyrrolidine-3-carbonitrile] | 0.0001 to 10 µM | 0.0001 to 10 µM
N#CC1(F)CCN(C(=O)c2cccc(-c3cnc4[nH]c(-c5ccccc5)cc4c3)n2)C1 (stereo not shown) [Compound P-0115, 3-fluoro-1-[6-(2-phenyl-1H-pyrrolo[2,3-b]pyridin-5-yl)pyridine-2-carbonyl]pyrrolidine-3-carbonitrile] | 0.0001 to 10 µM | 50 to 100 µM
CC(C)(C#N)CNC(=O)c1cccc(-c2cnc3[nH]c(C4=CCCCC4)cc3c2)n1 [Compound P-0123, N-(2-cyano-2-methyl-propyl)-6-[2-(cyclohexen-1-yl)-1H-pyrrolo[2,3-b]pyridin-5-yl]pyridine-2-carboxamide] | 0.0001 to 10 µM | 0.0001 to 10 µM
N#CC1(NC(=O)c2cccc(-c3cnc4[nH]c(-c5ccccc5)cc4c3)n2)CCC1 [Compound P-0114, N-(1-cyanocyclobutyl)-6-(2-phenyl-1H-pyrrolo[2,3-b]pyridin-5-yl)pyridine-2-carboxamide] | 0.0001 to 10 µM | 50 to 100 µM
